The test system of data set [1] is Escherichia coli. Put plainly: Antibacterial activity against Escherichia coli clinical isolate AG001. The class given is functional.
The next data set concerns the target Bacterial 70S ribosome. Put plainly: Inhibition of Mycobacterium smegmatis wild type ribosomes assessed as inhibition of translation activity using Firefly luciferase mRNA reporter based luminescence analysis. It counts as subcellular, Mycolicibacterium smegmatis.
Data set [2] concerns Pseudomonas aeruginosa. In words: Antibacterial activity against Pseudomonas aeruginosa clinical isolate AG032. It counts as functional.
A short description of data set [3]: Inhibition of human mitochondrial ribosome Mit 13 hybridized with Mycobacterium smegmatis ribosome assessed as inhibition of translation activity using Firefly luciferase mRNA reporter based luminescence analysis.
In data set [4] the test system is Escherichia coli. Put plainly: Antibacterial activity against Escherichia coli clinical isolate AG003. The class given is functional.
For data set [5], the system named is human mitochondrial ribosome (Mit 13 hybrid). In words: Selectivity ratio of IC50 for inhibition of human mitochondrial ribosome Mit 13 hybridized with Mycobacterium smegmatis ribosome to IC50 for inhibition of Mycobacterium smegmatis wild type ribosomes. As to conditions: read-out: Ratio IC50. It counts as toxicity.
Data set [6] relates to Staphylococcus aureus. Put plainly: Antibacterial activity against methicillin-resistant Staphylococcus aureus clinical isolate AG042 harboring with ANT4',4\" gene. It counts as functional.
Data set [7] deals with Staphylococcus aureus. In words: Antibacterial activity against methicillin-resistant Staphylococcus aureus clinical isolate AG039. It counts as functional.
Data set [8] concerns Pseudomonas aeruginosa. Put plainly: Antibacterial activity against Pseudomonas aeruginosa clinical isolate AG033. The class given is functional.
The test system of data set [9] is human mitochondrial ribosome A1555G mutant (Mit 13 A1555G hybrid). Put plainly: Selectivity ratio of IC50 for inhibition of human mitochondrial ribosome Mit 13 A1555G mutant hybridized with Mycobacterium smegmatis ribosomes to IC50 for inhibition of Mycobacterium smegmatis wild type ribosomes. As to conditions: read-out: Ratio IC50. The class given is toxicity.

Data set [10] deals with Pseudomonas aeruginosa. In words: Antibacterial activity against Pseudomonas aeruginosa clinical isolate AG031. The class given is functional.
For data set [11], the system named is Staphylococcus aureus. Put plainly: Antibacterial activity against methicillin-resistant Staphylococcus aureus clinical isolate AG038. It counts as functional.
Data set [12] in a line: Inhibition of human mitochondrial ribosome Mit 13 A1555G mutant hybridized with Mycobacterium smegmatis ribosome assessed as inhibition of translation activity using Firefly luciferase mRNA reporter based luminescence analysis.
The test system of data set [13] is Escherichia coli. Put plainly: Antibacterial activity against Escherichia coli clinical isolate AG055. The class given is functional.
The nature of data set [14]: Inhibition of human cytoplasmic ribosome Cyt 14 hybridized with Mycobacterium smegmatis ribosome assessed as inhibition of translation activity using Firefly luciferase mRNA reporter based luminescence analysis.
In data set [15] the test system is human cytoplasmic ribosome (Cyt 14 hybrid). In words: Selectivity ratio of IC50 for inhibition of human cytoplasmic ribosome Cyt 14 hybridized with Mycobacterium smegmatis ribosomes to IC50 for inhibition of Mycobacterium smegmatis wild type ribosomes. It counts as toxicity. The note with it: read-out: Ratio IC50.

Our source for the MIC, IC50 and selectivity ratio values is ChEMBL document CHEMBL4373646, “Synthesis, ribosomal selectivity, and antibacterial activity of netilmicin 4'-derivatives” (Medchemcomm, 2019).

pIC50: −log10 of the molar value. Values after ≈ are worked out from the molar mass of the structure shown.

On to `CCN[C@@H]1C[C@H](N)[C@@H](O[C@H]2OC(CN)=C(Br)C[C@H]2N)[C@H](O)[C@H]1O[C@H]1OC[C@](C)(O)[C@H](NC)[C@H]1O`, for which the MIC (as a rule, the lowest concentration that inhibits growth of the organism) is 2 µg/mL (≈ 3.61 µM) against Escherichia coli [1]; 8 µg/mL (≈ 14.4 µM) with Pseudomonas aeruginosa [2]; 16 µg/mL (≈ 28.9 µM) in the data set on Escherichia coli [4]; 64 µg/mL (≈ 115 µM) against Staphylococcus aureus [6]; 8 to 16 µg/mL (≈ 14.4 to 28.9 µM) in the data set on Staphylococcus aureus [7]; 64 µg/mL (≈ 115 µM) against Pseudomonas aeruginosa [8]. The minimum inhibitory concentration (MIC) in the data set on Pseudomonas aeruginosa [10] is 8 µg/mL (≈ 14.4 µM); with Staphylococcus aureus [11] it was 4 µg/mL (≈ 7.21 µM); with Escherichia coli [13], 1 to 2 µg/mL (≈ 1.8 to 3.61 µM). Moreover, the pIC50 – broadly, the negative decadic logarithm of the IC50, by convention in mol/L – at Bacterial 70S ribosome was 7.00; in data set [3] it was 4.28; in data set [12], 5.92; in [14] it was 3.84. Moreover, the results for the selectivity ratio in data set [5], in data set [9] and in data set [15] were 520, 12 and 1460, respectively.

As to `NC[C@@H]1O[C@H](O[C@H]2[C@@H](O)[C@H](O[C@@H]3[C@@H](O)[C@H](N)C[C@H](N)[C@H]3O[C@H]3O[C@H](CO)[C@@H](O)[C@H](O)[C@H]3N)O[C@@H]2CO)[C@H](N)[C@@H](O)[C@@H]1O` [PAROMOMYCIN], the pIC50 is 7.42 at Bacterial 70S ribosome, 3.85 in data set [3], 4.92 in data set [12] and 4.51 in [14]. Also, the selectivity ratio in [5] amounted to 3740; in data set [9], 315; in [15] it was 816.

As to `CCN[C@@H]1C[C@H](N)[C@@H](O[C@H]2OC(CN)=C(c3ccccc3)C[C@H]2N)[C@H](O)[C@H]1O[C@H]1OC[C@](C)(O)[C@H](NC)[C@H]1O`, the MIC against Escherichia coli [1] is 4 µg/mL (≈ 7.25 µM); in the data set on Pseudomonas aeruginosa [2] it was 16 to 32 µg/mL (≈ 29 to 58 µM); in the data set with Escherichia coli [4] it was 64 µg/mL (≈ 116 µM); in the data set on Staphylococcus aureus [6] it was 64 µg/mL (≈ 116 µM); with Staphylococcus aureus [7] it was 16 µg/mL (≈ 29 µM); against Pseudomonas aeruginosa [8], greater than 64 µg/mL. In addition, the MIC in the data set on Pseudomonas aeruginosa [10] is 16 to 32 µg/mL (≈ 29 to 58 µM); against Staphylococcus aureus [11], 8 µg/mL (≈ 14.5 µM); in the data set with Escherichia coli [13] it was 2 µg/mL (≈ 3.63 µM). In addition, the pIC50 was 6.57 at Bacterial 70S ribosome, 4.54 in data set [3], 5.46 in data set [12] and 4.09 in [14]. For the same compound, the values for the selectivity ratio in [5], in data set [9] and in data set [15] were 106, 13 and 299, respectively.

In the case of `CCCCC1=C(CN)O[C@H](O[C@H]2[C@H](O)[C@@H](O[C@H]3OC[C@](C)(O)[C@H](NC)[C@H]3O)[C@H](NCC)C[C@@H]2N)[C@H](N)C1`, the MIC is 8 to 16 µg/mL (≈ 15 to 30.1 µM) in the data set with Escherichia coli [1]; 64 µg/mL (≈ 120 µM) in the data set with Pseudomonas aeruginosa [2]; 8 to 16 µg/mL (≈ 15 to 30.1 µM) with Escherichia coli [4]; 64 µg/mL (≈ 120 µM) with Staphylococcus aureus [6]; 16 µg/mL (≈ 30.1 µM) against Staphylococcus aureus [7]; greater than 128 µg/mL in the data set with Pseudomonas aeruginosa [8]. For the same compound, the values for the MIC in the data set on Pseudomonas aeruginosa [10], in the data set with Staphylococcus aureus [11] and against Escherichia coli [13] were 64 µg/mL (≈ 120 µM), 16 µg/mL (≈ 30.1 µM) and 5 µg/mL (≈ 9.4 µM), respectively. Moreover, the pIC50 was 6.24 at Bacterial 70S ribosome, 3.39 in [3], 4.66 in [12] and 3.03 in [14]. Moreover, the selectivity ratio in data set [5] was 699; in [9] it was 37; in data set [15], 1610.

`CCC[C@H]1[C@H](O)[C@@H](N)[C@@H](O[C@H]2[C@H](O[C@@H]3O[C@H](CO)[C@@H](O[C@H]4O[C@@H](CN)[C@@H](O)[C@H](O)[C@H]4N)[C@H]3O)[C@@H](O)[C@H](N)C[C@@H]2N)O[C@@H]1CO`: the pIC50 was 7.51 at Bacterial 70S ribosome, 3.78 in data set [3], 4.28 in data set [12] and 4.19 in [14]. In addition, the results for the selectivity ratio in data set [5], in data set [9] and in data set [15] were 5390, 1680 and 2060, respectively.

For `CCN[C@@H]1C[C@H](N)[C@@H](O[C@H]2OC(CN)=CC[C@H]2N)[C@H](O)[C@H]1O[C@H]1OC[C@](C)(O)[C@H](NC)[C@H]1O` [NETILMICIN], the MIC was 2 µg/mL (≈ 4.21 µM) against Escherichia coli [1]; 2 µg/mL (≈ 4.21 µM) in the data set with Pseudomonas aeruginosa [2]; 8 µg/mL (≈ 16.8 µM) in the data set with Escherichia coli [4]; 2 µg/mL (≈ 4.21 µM) with Staphylococcus aureus [6]; 0.5 µg/mL (≈ 1.05 µM) against Staphylococcus aureus [7]; greater than 128 µg/mL with Pseudomonas aeruginosa [8]. For the same compound, the values for the MIC in the data set with Pseudomonas aeruginosa [10], against Staphylococcus aureus [11] and with Escherichia coli [13] were 2 µg/mL (≈ 4.21 µM), 0.5 µg/mL (≈ 1.05 µM) and 2 µg/mL (≈ 4.21 µM), respectively. Besides, the pIC50 on Bacterial 70S ribosome is 7.70; in data set [3], 4.55; in data set [12] it was 6.15; in data set [14], 4.16. Also, the results for the selectivity ratio in data set [5], in data set [9] and in data set [15] were 1400, 35 and 3450, respectively.

With `CCN[C@@H]1C[C@H](N)[C@@H](O[C@H]2OC(CN)=C(SCC)C[C@H]2N)[C@H](O)[C@H]1O[C@H]1OC[C@](C)(O)[C@H](NC)[C@H]1O`, the MIC in the data set on Escherichia coli [1] is 16 µg/mL (≈ 29.9 µM); with Pseudomonas aeruginosa [2], 128 µg/mL (≈ 239 µM); against Escherichia coli [4], 8 to 16 µg/mL (≈ 14.9 to 29.9 µM); in the data set on Staphylococcus aureus [6] it was 128 µg/mL (≈ 239 µM); with Staphylococcus aureus [7], 32 µg/mL (≈ 59.7 µM); against Pseudomonas aeruginosa [8] it was greater than 128 µg/mL. Besides, the MIC against Pseudomonas aeruginosa [10] is greater than 128 µg/mL; against Staphylococcus aureus [11], 32 µg/mL (≈ 59.7 µM); in the data set with Escherichia coli [13], 8 to 16 µg/mL (≈ 14.9 to 29.9 µM). The negative logarithm of the IC50 (pIC50) on Bacterial 70S ribosome is 6.17; in data set [3], 3.59; in data set [12], 4.34; in [14] it was 3.11. For the same compound, the values for the selectivity ratio in data set [5], in data set [9] and in data set [15] were 381, 69 and 1160, respectively.

Consider `CCN[C@@H]1C[C@H](N)[C@@H](O[C@H]2OC(CN)=C(I)C[C@H]2N)[C@H](O)[C@H]1O[C@H]1OC[C@](C)(O)[C@H](NC)[C@H]1O`, for which the MIC in the data set on Escherichia coli [1] was 2 µg/mL (≈ 3.33 µM); against Pseudomonas aeruginosa [2], 4 to 8 µg/mL (≈ 6.65 to 13.3 µM); against Escherichia coli [4] it was 16 µg/mL (≈ 26.6 µM); in the data set on Staphylococcus aureus [6], 64 µg/mL (≈ 106 µM); with Staphylococcus aureus [7] it was 16 µg/mL (≈ 26.6 µM); in the data set with Pseudomonas aeruginosa [8], greater than 128 µg/mL. Also, the MIC lay in the range of 4 to 8 µg/mL (≈ 6.65 to 13.3 µM) against Pseudomonas aeruginosa [10], 4 to 8 µg/mL (≈ 6.65 to 13.3 µM) in the data set with Staphylococcus aureus [11] and 1 to 2 µg/mL (≈ 1.66 to 3.33 µM) against Escherichia coli [13]. Moreover, the pIC50 is 7.00 at Bacterial 70S ribosome, 4.31 in [3], 5.82 in data set [12] and 3.66 in data set [14]. For the same compound, the selectivity ratio came out at 490 in data set [5], 15 in data set [9] and 2210 in data set [15].

As for `CCN[C@@H]1C[C@H](N)[C@@H](O[C@H]2OC(CN)=C(Cl)C[C@H]2N)[C@H](O)[C@H]1O[C@H]1OC[C@](C)(O)[C@H](NC)[C@H]1O`, the MIC is 4 µg/mL (≈ 7.84 µM) in the data set with Escherichia coli [1]; 64 µg/mL (≈ 125 µM) in the data set on Pseudomonas aeruginosa [2]; 16 to 32 µg/mL (≈ 31.4 to 62.7 µM) in the data set on Escherichia coli [4]; 32 µg/mL (≈ 62.7 µM) against Staphylococcus aureus [6]; 8 µg/mL (≈ 15.7 µM) against Staphylococcus aureus [7]; greater than 128 µg/mL in the data set with Pseudomonas aeruginosa [8]. Further, the MIC was 4 µg/mL (≈ 7.84 µM) against Pseudomonas aeruginosa [10], 4 µg/mL (≈ 7.84 µM) in the data set with Staphylococcus aureus [11] and 2 to 4 µg/mL (≈ 3.92 to 7.84 µM) in the data set on Escherichia coli [13]. Moreover, the pIC50 at Bacterial 70S ribosome is 7.00; in data set [3], 4.24; in [12] it was 5.82; in [14], less than 3.30. Further, the selectivity ratio in data set [5] was 580; in data set [9], 15; in data set [15] it was greater than 5000.

For `CCS[C@H]1[C@H](O)[C@@H](N)[C@@H](O[C@H]2[C@H](O[C@@H]3O[C@H](CO)[C@@H](O[C@H]4O[C@@H](CN)[C@@H](O)[C@H](O)[C@H]4N)[C@H]3O)[C@@H](O)[C@H](N)C[C@@H]2N)O[C@@H]1CO`, the pIC50 on Bacterial 70S ribosome is 7.28; in data set [3], 3.78; in data set [12] it was 4.12; in data set [14] it was 3.98. The selectivity ratio in [5] came out at 3130; in data set [9], 1430; in data set [15], 1960.
